According to patent US5736161A, “Pharmaceutical preparation for improving the bioavailability of drugs which are difficult to absorb and a procedure for obtaining it” (Lipotec S.A., priority 1993, dated 1998):

Assays:
Xa = experiment: Bioavailability test in dogs: anti-Xa activity in the plasma, ex-vivo chromogenic test (Coatest); parameters: species or system dog
Description: Bioavailability tests on the capsules prepared according to examples 1 and 2.
(§1) Bioavailability studies in which the animals received 40 mg of heparin by the oral route or 10 mg by the subcutaneous route over a period of three days.
(§2) Four dogs (2 for each treatment), each approximately 15 kg in weight.
A bioassay (anti-Xa activity) was used to measure the concentrations in the plasma.
The anti-Xa activity in the plasma was measured ex-vivo using a chromogenic test using a commercially available kit (Coatest) and expressed in IU/ml. The values were calculated from a calibration curve obtained in-vitro by adding different quantities of SLMWH to dog plasma.
The blood was extracted from the femoral vein. Starting on the second day of experiments samples were collected before and 1, 2, 3, 4 and 6 hours after oral or subcutaneous administration, sodium citrate was added to the samples (9 vol. sangre:1 vol. 3.8% sodium citrate) followed by centrifuging at 1200 rpm for 20 minutes at 4° C. The plasma was separated immediately and the anti-Xa activity was tested.

[1] = Urine analysis by proton NMR after chondroitinase AC treatment; assay type: in vivo, dog; settings: chondroitinase AC treated, route not distinguished
Description: as §1, §2
(§3) The urine samples were treated with chondroitinase AC to eliminate the endogenous chondroitins. The residue was analyzed by means of proton NMR and HPLC (to determine the molecular weight).

[2] = Urine analysis by HPLC (molecular weight) after chondroitinase AC treatment; assay type: in vivo, dog; settings: chondroitinase AC treated, route not distinguished
Description: as §1, §2, §3

[3] = oral, capsules (examples 1 and 2), 40 mg heparin, second day
[4] = subcutaneous, 10 mg heparin, second day

- levels of heparin in the blood (anti-Xa activity method) (Xa; [3]): detectable
- peak values of anti-Xa activity in plasma (Xa; [3]): 0.2-0.4 IU/ml
- peak values of anti-Xa activity in plasma (Xa; oral, capsules (examples 1 and 2), 40 mg heparin, third day, 1 and 2 hours after administration): 0.8-1.2 IU/ml
- significant anti-Xa activity in plasma after 6 hours (Xa; oral, capsules (examples 1 and 2), 40 mg heparin, third day): > 0.3 IU/ml
- significant continued anti-Xa activity (>0.1 IU/ml) for 3 hours (Xa; oral, capsules, 40 mg heparin, second day, not found after oral): only after subcutaneous administration
- levels of heparin in the blood (anti-Xa activity method) (Xa; subcutaneous injection, 10 mg heparin, second day): detectable
- duration of significant continued anti-Xa activity (>0.1 IU/ml) in plasma (Xa; [4]): 3 h
- peak values of anti-Xa activity in plasma (Xa; [4]): 0.2-0.4 IU/ml
- significant continued anti-Xa activity in plasma (Xa; subcutaneous, 10 mg heparin, second day, for 3 hours): > 0.1 IU/ml
- peak values of anti-Xa activity in plasma (Xa; subcutaneous, 10 mg heparin, third day, 1 and 2 hours after administration): 0.8-1.2 IU/ml
- significant anti-Xa activity in plasma after 6 hours (Xa; subcutaneous, 10 mg heparin, third day): > 0.3 IU/ml
- molecular weight of the urine residue (HPLC) [2]: 5 kDaltons
Substance: sodium heparin of low molecular weight [SLMWH]
- basal values of anti-Xa activity before the final dose (Xa; third day vs previous day, oral or subcutaneous, route not distinguished): significantly higher than the corresponding values on the previous day
- H1-NMR test of urine [1]: presence of partially disulphated heparin
